Measured values as given in patent publication US20240316051A1, “A PHARMACEUTICAL COMBINATION AND USE THEREOF” (Ascentage Pharma (Suzhou) Co., Ltd., priority 2021, published 2024).

How the values were obtained:
[1] = tested on: human B cell lymphoma cell KARPAS422; assay: Cell proliferation (WST-8), KARPAS422, 7 days; assay type: cell-based; details: KARPAS-422, 168 h, WST-8, Table 4A, read-out: Karpas Cell line
Description: Analysis of Cell Proliferation:
To assess the effect of PRC2 inhibition on cell growth, cells were seeded in 96-well cell culture plates at a density of 2 000-3 000 cells/well in 200 μL of culture medium, and treated with serially diluted compounds for 7 days at 37° C. in an atmosphere of 5% CO2. Cell growth was evaluated by a […] WST-8 assay (Dojindo Molecular Technologies) using a Tecan Infinite M1000 multimode microplate reader (Tecan, Morrisville, NC). The WST-8 reagent was added to the plate, incubated for 1-4 h, and read at 450 nm. The readings were normalized to the DMSO-treated cells, and the IC50 was calculated by nonlinear regression analysis using GraphPad Prism 6 software

[2] = target: T1, EED (1-441)-His protein (Homo sapiens, UniProt O75530); assay: EED-H3K27Me3 peptide competition binding assay by AlphaScreen; details: Table 4A, read-out: Alpha screen
T1 construct: 20 nM EED (1-441)-His protein
In short: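 Readout was AlphaScreen emission at 615 nm after 680 nm excitation, with 10 μg/ml final each of streptavidin donor and nickel chelate acceptor beads, 1 h at RT in the dark. Beforehand, compound met the His-tagged EED(1-441) for 15 min and then biotinylated H3K27Me3(19-33) peptide for 30 min; both were added as 20 nM solutions, buffer 25 mM HEPES pH 8, Tween-20, BSA. Percent activity left was fitted to give IC50.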

[3] = tested on: BAP1 mut mesothelioma PDX model; assay: BAP1 mut mesothelioma PDX model (Examples 15-17); assay type: in vivo, mice; details: Compound A-1 10 mg/kg, orally, every other day, 28 days; end of study
Description: A subcutaneous xenograft tumor model of human tumor immunodeficient mice was established by cell inoculation: tumor cells in logarithmic growth phase were collected, counted, resuspended in 1×PBS, and the cell suspension concentration was adjusted to 2.5-5×10^7/mL. The tumor cells were inoculated subcutaneously in the right side of immunodeficient mice with a 1 ml syringe ([…]), 5-10×10^6/0.2 mL/mouse. All animal experiments were strictly in accordance with the specifications for the use and management of experimental animals in GenePharma Co., Ltd. and Suzhou Ascentage Pharma Co., Ltd. The calculation of relevant parameters refers to the Chinese NMPA “Guidelines for Non-Clinical Research Techniques of Cytotoxic Anti-tumor Drugs”.
Animal body weight and tumor size were measured twice weekly during the experiment. The state of the animal and the presence or absence of death were observed every day. The growth of tumor and the effects of treatment on normal behavior of animals were monitored routinely, specifically involving experimental animal activity, feeding and drinking, weight gain or loss, eyes, clothing hair and other abnormalities. The deaths and clinical symptoms observed during the experiment were recorded in the raw data. All operations for administration and measurement of mouse body weight and tumor volume were performed in a clean bench. According to the requirements of the experimental protocol, after the end of the last administration, plasma and tumor tissues were collected, weighed and photographed. The plasma and tumor samples were frozen at −80° C. for ready-to-use.
Tumor volume (TV) is calculated as: TV=a×b^2/2, wherein a and b represent the length and width of the tumor to be measured, respectively.
The relative tumor volume (RTV) is calculated as: RTV=Vt/V1, wherein V1 is the tumor volume at the start of grouping and administration, and Vt is the tumor volume measured on the t day after administration.
The evaluation index of anti-tumor activity is the relative tumor proliferation rate T/C (%), and the calculation formula thereof is: relative tumor proliferation rate T/C (%)=(TRTV/CRTV)×100%, TRTV is the RTV of treatment group, CRTV is the RTV of solvent control group.
A dose of drug is considered to be severely toxic if the body weight of mouse is reduced by more than 20% or the number of drug-related deaths exceeds 20%.
According to the description by Clarke R., Issues in experimental design and endpoint analysis in the study of experimental cytotoxic agents in vivo in breast cancer and other models [J]. Breast Cancer Research & Treatment, 1997, 46(2-3): 255-278, synergy analysis was evaluated using the following formula: synergy factor=((A/C)×(B/C))/(AB/C); A=RTV value of drug A alone group; B=RTV value of drug B alone group; C=RTV value of the solvent control group, and AB=RTV value of the A and B combination group.
In this experiment, a BAP1 mut mesothelioma PDX model (Lide Biotech) was established to evaluate the anti-tumor effect of Compound 73. The dosing regimen was as follows: • Compound 73: 50 mg/kg, orally, once per day, for a total of 28 days; • Compound 73: 100 mg/kg, orally, once per day, for a total of 28 days;
In this experiment, a BAP1 mut mesothelioma PDX model (Lide Biotech) was established to evaluate the anti-tumor effect of Compound 73 in combination with Compound A-1. […]

T1 sequence (O75530 whole entry): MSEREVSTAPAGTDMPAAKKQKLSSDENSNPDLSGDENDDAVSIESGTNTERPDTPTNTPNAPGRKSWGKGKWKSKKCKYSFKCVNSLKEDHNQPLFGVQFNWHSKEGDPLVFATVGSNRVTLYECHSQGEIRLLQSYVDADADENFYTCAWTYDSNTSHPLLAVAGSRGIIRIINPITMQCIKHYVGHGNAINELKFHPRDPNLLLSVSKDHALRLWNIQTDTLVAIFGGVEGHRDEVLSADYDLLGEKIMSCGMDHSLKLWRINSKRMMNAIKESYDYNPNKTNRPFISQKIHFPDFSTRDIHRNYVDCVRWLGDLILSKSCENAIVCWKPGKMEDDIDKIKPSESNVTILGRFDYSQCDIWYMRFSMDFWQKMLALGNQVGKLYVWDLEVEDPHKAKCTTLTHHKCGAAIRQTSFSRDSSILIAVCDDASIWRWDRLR

Row | IC50 [1] | IC50 [2] | Structure (SMILES) | T/C (%) [3]
1 | 15.3 nM | 1.61 nM | O=C1c2ncn3c(NCc4c(F)ccc5c4CCO5)ncc(c23)-c2ccc(F)cc2CN1CCF [Compound 79, 7-fluoro-12-(((5-fluoro-2,3-dihydrobenzofuran-4-yl)methyl)amino)-4-(2-fluoroethyl)-4,5-dihydro-3H-2,4,11,12a-tetraazabenzo[4,5]cycloocta [1,2,3-cd]inden-3-one] | –
2 | 14.5 nM | 0.97 nM | CC(F)(F)CN1Cc2cc(F)ccc2-c2cnc(NCc3c(F)ccc4c3CCO4)n3cnc(c23)C1=O [Compound 76, 4-(2,2-difluoropropyl)-7-fluoro-12-(((5-fluoro-2,3-dihydrobenzofuran-4-yl)methyl)amino)-4,5-dihydro-3H-2,4,11,12a-tetraazabenzo[4,5]cycloocta [1,2,3-cd]inden-3-one] | –
3 | 2.42 nM | 1.61 nM | O=C1c2ncn3c(NCc4c(F)ccc5c4CCO5)ncc(c23)-c2ccc(F)cc2CN1CC(F)F [Compound 80, 4-(2,2-difluoroethyl)-7-fluoro-12-(((5-fluoro-2,3-dihydrobenzofuran-4-yl)methyl)amino)-4,5-dihydro-3H-2,4,11,12a-tetraazabenzo[4,5]cycloocta[1,2,3-cd]inden-3-one] | –
4 | 34.5 nM | 3.23 nM | CC(C)(F)CN1Cc2cc(F)ccc2-c2cnc(NCc3c(F)ccc4c3CCO4)n3cnc(c23)C1=O [Compound 78, 7-fluoro-12-(((5-fluoro-2,3-dihydrobenzofuran-4-yl)methyl)amino)-4-(2-fluoro-2-methylpropyl)-4,5-dihydro-3H-2,4,11,12a-tetraazabenzo[4,5] cycloocta[1,2,3-cd]inden-3-one] | –

Further lines, the compound ahead of its results:

Row | Structure (SMILES) | IC50 [1] | IC50 [2] | T/C (%) [3]
5 | CN1CCC(N2Cc3cc(F)ccc3-c3cnc(NCc4c(F)ccc5c4CCO5)n4cnc(c34)C2=O)CC1 [Compound 75, 7-fluoro-12-(((5-fluoro-2,3-dihydrobenzofuran-4-yl)methyl)amino)-4-(1-methylpiperidin-4-yl)-4,5-dihydro-3H-2,4,11,12a-tetraazabenzo[4,5] cycloocta[1,2,3-cd]inden-3-one] | 11.1 nM | 1.72 nM | –
6 | O=C1c2ncn3c(NCc4c(F)ccc5c4CCO5)ncc(c23)-c2ccc(F)cc2CN1C1CCOCC1 [Compound 65, 7-fluoro-12-(((5-fluoro-2,3-dihydrobenzofuran-4-yl)methyl)amino)-4-(tetrahydro-2H-pyran-4-yl)-4,5-dihydro-3H-2,4,11,12a-tetraazabenzo[4,5] cycloocta[1,2,3-cd]inden-3-one] | 0.69 nM | – | –
7 | O=C1c2ncn3c(NCc4c(F)ccc5c4CCO5)ncc(c23)-c2ccc(F)cc2CN1C1CC1 [Compound 64, 4-cyclopropyl-7-fluoro-12-(((5-fluoro-2,3-dihydrobenzofuran-4-yl)methyl)amino)-4,5-dihydro-3H-2,4,11,12a-tetraazabenzo[4,5]cycloocta[1,2,3-cd] inden-3-one] | 2.44 nM | – | –
8 | Cc1ccc(C(=O)Nc2ccc(CN3CCN(C)CC3)c(C(F)(F)F)c2)cc1C#Cc1cnc2[nH]ncc2c1 [Compound A-1] | – | – | 74.8%
